15 compounds from patent US10981926B2 (Janssen Pharmaceutica NV, priority 2016, dated 2021) can be followed below.

Holding throughout (assay type): cell-based
Assay [1] deals with T1, F876L mutant Androgen Receptor (AR-F876L) (Homo sapiens (Human), UniProt P10275, F877L). The assay is described as follows: LNCaP-AR-F876L ANT reporter assay (antagonist mode). The settings on record: for IC50: read-out: LNCaP-AR-F876L ANT pIC50 (converted); for Emax: maximum % inhibition of R1881 control response over the tested concentration range, read-out: LNCaP-AR-F876L ANT MAX % Inh. Background: In a reporter assay the amount or activity of a reporter protein is the signal.

For assay [2], the target named is T2, wild-type Androgen Receptor (AR-wt) (Homo sapiens (Human), UniProt P10275). The assay is described as follows: LNCaP-AR-wt AG reporter assay (agonist mode). Particulars: for EC50: agonist mode, pEC50 = −Log10(EC50 in Molar), read-out: LNCaP-AR-wt AG pEC50 (converted); for Emax: maximum % stimulation (agonist response) over the tested concentration range, read-out: LNCaP-AR-wt AG MAX % Stim.

Assay [3] deals with T1, F876L mutant Androgen Receptor (AR-F876L). The assay is described as follows: LNCaP-AR-F876L AG reporter assay (agonist mode). The settings on record: for EC50: agonist mode, pEC50 = −Log10(EC50 in Molar), read-out: LNCaP-AR-F876L AG pEC50 (converted); for Emax: read-out: LNCaP-AR-F876L AG MAX % Stim.
The target of assay [4] is T2, wild-type Androgen Receptor (AR-wt). The assay is described as follows: LNCaP-AR-wt ANT reporter assay (antagonist mode). The settings on record: for IC50: read-out: LNCaP-AR-wt ANT pIC50 (converted); for Emax: maximum % inhibition of R1881 control response over the tested concentration range, read-out: LNCaP-AR-wt ANT MAX % Inh.
Where [5] appears, read: antagonist mode, pIC50 = −Log10(IC50 in Molar).
[6] abbreviates: maximum % stimulation (agonist response) over the tested concentration range.

T2 sequence (P10275 whole entry): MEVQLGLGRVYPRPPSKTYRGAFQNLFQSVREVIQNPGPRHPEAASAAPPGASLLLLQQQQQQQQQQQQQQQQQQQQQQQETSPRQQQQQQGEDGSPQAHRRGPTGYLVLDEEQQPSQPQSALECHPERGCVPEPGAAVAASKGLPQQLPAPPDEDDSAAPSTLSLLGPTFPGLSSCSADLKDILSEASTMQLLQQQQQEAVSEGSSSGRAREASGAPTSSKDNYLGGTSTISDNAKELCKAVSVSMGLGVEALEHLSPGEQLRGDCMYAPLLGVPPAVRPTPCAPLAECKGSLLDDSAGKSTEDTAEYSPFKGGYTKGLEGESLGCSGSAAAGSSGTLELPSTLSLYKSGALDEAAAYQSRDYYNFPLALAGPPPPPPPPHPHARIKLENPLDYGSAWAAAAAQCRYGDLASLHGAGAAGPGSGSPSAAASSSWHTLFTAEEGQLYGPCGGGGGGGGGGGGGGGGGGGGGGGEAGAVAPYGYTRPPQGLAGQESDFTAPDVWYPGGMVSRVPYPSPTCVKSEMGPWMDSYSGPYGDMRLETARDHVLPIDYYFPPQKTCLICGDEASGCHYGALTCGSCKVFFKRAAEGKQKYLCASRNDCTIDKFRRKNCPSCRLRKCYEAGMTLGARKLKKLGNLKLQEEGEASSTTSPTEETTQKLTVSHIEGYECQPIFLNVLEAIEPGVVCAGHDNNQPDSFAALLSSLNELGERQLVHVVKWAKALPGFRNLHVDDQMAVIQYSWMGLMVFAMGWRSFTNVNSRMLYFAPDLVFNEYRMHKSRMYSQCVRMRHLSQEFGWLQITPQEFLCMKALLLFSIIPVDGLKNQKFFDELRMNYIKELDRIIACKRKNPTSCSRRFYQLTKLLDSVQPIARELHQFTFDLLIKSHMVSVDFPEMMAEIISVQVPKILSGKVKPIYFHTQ
T1 sequence (P10275 whole entry F877L): as the sequence (P10275 whole entry) above, with F877L counted along it

In the case of `COc1cc(N2C(=S)N(c3cnc(C#N)c(C)c3)C(=O)C23CCC3)ccc1-c1ccc(C)o1` [Cpd 5, 5-{8-[3-methoxy-4-(5-methyl(2-furyl))phenyl]-5-oxo-7-thioxo-6,8-diazaspiro[3.4]oct-6-yl}-3-methylpyridine-2-carbonitrile], the IC50 is 0.661 µM in assay [1] (setting [5]) and 0.676 µM in assay [4] (setting [5]). Besides, the Emax worked out at 90.3% in assay [1], 1.2% in assay [2], 3.3% in assay [3] (setting [6]) and 98.8% in assay [4]. The EC50 in assay [2] and in assay [3] was more than 15.1 µM throughout.
Consider `COCc1ccc(-c2ccc(N3C(=S)N(c4cnc(C#N)c(C)c4)C(=O)C34CCC4)cc2)o1` [Cpd 6, 5-(8-{4-[5-(methoxymethyl)(2-furyl)]phenyl}-5-oxo-7-thioxo-6,8-diazaspiro[3.4]oct-6-yl)-3-methylpyridine-2-carbonitrile], for which the IC50 was 0.191 µM in assay [1] (setting [5]) and 0.295 µM in assay [4] (setting [5]). Further, the Emax in assay [1] came out at 98.1%; in assay [2] it was 0.3%; in assay [3] (setting [6]), 0.9%; in assay [4], 99.7%. Moreover, the EC50 in assay [2] and in assay [3] was more than 15.1 µM throughout.
As to `Cc1cc(N2C(=O)C3(CCC3)N(c3ccc(-c4cnn(C(N)=O)c4)cc3)C2=S)cnc1C#N` [Cpd 7, 4-{4-[7-(6-cyano-5-methyl(3-pyridyl))-8-oxo-6-thioxo-5,7-diazaspiro[3.4]oct-5-yl]phenyl}pyrazolecarboxamide], the IC50 was 0.135 µM in assay [1] (setting [5]) and 0.288 µM in assay [4] (setting [5]). Also, the Emax in assay [1] came to 98.2%; in assay [2], 0.3%; in assay [3] (setting [6]), 2.8%; in assay [4], 99.1%. The EC50 in assay [2] and in assay [3] was more than 15.1 µM throughout.
For the compound `CNC(=O)Cc1ccc(N2C(=S)N(c3cnc(C#N)c(C)c3)C(=O)C23CCC3)cc1` [Cpd 8, 2-{4-[7-(6-cyano-5-methyl(3-pyridyl))-8-oxo-6-thioxo-5,7-diazaspiro[3.4]oct-5-yl]phenyl}-N-methylacetamide], the IC50 in assay [1] (setting [5]) was 1.15 µM; in assay [4] (setting [5]) it was 1.17 µM. Moreover, the Emax is 96% in assay [1], 0.4% in assay [2], -0.1% in assay [3] (setting [6]) and 86.6% in assay [4]. The EC50 in assay [2] and in assay [3] was more than 15.1 µM in each case.
For `Cc1cc(N2C(=O)C3(CCC3)N(c3ccc(N4CCNC4=O)cc3)C2=S)cnc1C#N` [Cpd 9, 3-Methyl-5-{5-oxo-8-[4-(2-oxoimidazolidinyl)phenyl]-7-thioxo-6,8-diazaspiro[3.4]oct-6-yl}pyridine-2-carbonitrile], the IC50 in assay [1] (setting [5]) was 0.575 µM; in assay [4] (setting [5]), 1.2 µM. Besides, the Emax turned out to be 98.4% in assay [1], 0.1% in assay [2], 0.5% in assay [3] (setting [6]) and 94.2% in assay [4]. Moreover, the EC50 in assay [2] and in assay [3] was more than 15.1 µM throughout.
As to `CCNC(=O)n1cc(-c2ccc(N3C(=S)N(c4cnc(C#N)c(C)c4)C(=O)C34CCC4)cc2)cn1` [Cpd 10, (4-{4-[7-(6-cyano-5-methyl(3-pyridyl))-8-oxo-6-thioxo-5,7-diazaspiro[3.4]oct-5-yl]phenyl}pyrazolyl)-N-ethylcarboxamide], the IC50 in assay [1] (setting [5]) is 0.275 µM; in assay [4] (setting [5]) it was 0.339 µM. The Emax in assay [1] worked out at 100%; in assay [2] it was 0.5%; in assay [3] (setting [6]) it was 0.9%; in assay [4], 102%. The EC50 in assay [2] and in assay [3] was more than 15.1 µM throughout.
In the case of `N#Cc1ncc(N2C(=O)C3(CCC3)N(c3ccc(OC4CCSCC4)cc3)C2=S)cc1C(F)(F)F` [Cpd 12, 5-[5-oxo-8-(4-thian-4-yloxyphenyl)-7-thioxo-6,8-diazaspiro[3.4]oct-6-yl]-3-(trifluoromethyl)pyridine-2-carbonitrile], the IC50 in assay [1] (setting [5]) is 0.117 µM; in assay [4] (setting [5]) it was 0.661 µM. Moreover, the Emax in assay [1] was 98.5%; in assay [2] it was 0.5%; in assay [3] (setting [6]), 0.7%; in assay [4], 101%. In addition, the EC50 in assay [2] and in assay [3] was more than 15.1 µM each time.
As to `N#Cc1ncc(N2C(=O)C3(CCC3)N(c3ccc(OC4CCS(=O)(=O)CC4)cc3)C2=S)cc1C(F)(F)F` [Cpd 13, 5-{8-[4-(1,1-dioxothian-4-yloxy)phenyl]-5-oxo-7-thioxo-6,8-diazaspiro[3.4]oct-6-yl}-3-(trifluoromethyl)pyridine-2-carbonitrile], the IC50 in assay [1] (setting [5]) was 0.363 µM; in assay [4] (setting [5]) it was 0.537 µM. Also, the Emax in assay [1] worked out at 98.1%; in assay [2], 0.5%; in assay [3] (setting [6]), 1%; in assay [4], 101%. Further, the EC50 in assay [2] and in assay [3] was more than 15.1 µM each time.
`N#Cc1ncc(N2C(=O)C3(CCC3)N(c3ccc(OC4CCN(CCCF)CC4)cc3)C2=S)cc1C(F)(F)F` [Cpd 14, 5-(5-(4-((1-(3-fluoropropyl)piperidin-4-yl)oxy)phenyl)-8-oxo-6-thioxo-5,7-diazaspiro[3.4]octan-7-yl)-3-(trifluoromethyl)picolinonitrile]: the IC50 is 0.234 µM in assay [1] (setting [5]) and 0.562 µM in assay [4] (setting [5]). Also, the Emax in assay [1] is 98.4%; in assay [2] it was 0.4%; in assay [3] (setting [6]) it was 0.2%; in assay [4], 97.1%. Moreover, the EC50 in assay [2] and in assay [3] was more than 15.1 µM throughout.
With `COc1ccc(N2C(=S)N(c3cnc(C#N)c(C(F)(F)F)c3)C(=O)C23CCC3)cn1` [Cpd 15, 5-[8-(6-methoxy-3-pyridyl)-5-oxo-7-thioxo-6,8-diazaspiro[3.4]octan-6-yl]-3-(trifluoromethyl)pyridine-2-carbonitrile], the results for the IC50 in assay [1] (setting [5]) and in assay [4] (setting [5]) were 0.191 µM and 0.24 µM, respectively. The Emax was 100% in assay [1], -0.1% in assay [2], 1.1% in assay [3] (setting [6]) and 101% in assay [4]. For the same compound, the EC50 in assay [2] and in assay [3] was more than 15.1 µM throughout.
As for `CN1CC[C@@H](Oc2ccc(N3C(=S)N(c4cnc(C#N)c(C(F)(F)F)c4)C(=O)C34CCC4)cc2)C1` [Cpd 16, 5-[8-[4-[(3R)-1-methylpyrrolidin-3-yl]oxyphenyl]-5-oxo-7-thioxo-6,8-diazaspiro[3.4]octan-6-yl]-3-(trifluoromethyl)pyridine-2-carbonitrile], the IC50 is 0.363 µM in assay [1] (setting [5]) and 1.12 µM in assay [4] (setting [5]). The Emax in assay [1] stood at 97.5%; in assay [2] it was 0.5%; in assay [3] (setting [6]) it was 0.8%; in assay [4], 98.8%. The EC50 in assay [2] and in assay [3] was more than 15.1 µM in each case.
For the compound `N#Cc1ncc(N2C(=O)C3(CCC3)N(c3ccc(OC4CCCNCC4)cc3)C2=S)cc1C(F)(F)F` (stereo not drawn) [Cpd 17, 5-[8-(4-azaperhydroepin-4-yloxyphenyl)-5-oxo-7-thioxo-6,8-diazaspiro[3.4]oct-6-yl]-3-(trifluoromethyl)pyridine-2-carbonitrile], the values for the IC50 in assay [1] (setting [5]) and in assay [4] (setting [5]) were 0.457 µM and 1.51 µM, respectively. Also, the Emax is 100% in assay [1], 0.3% in assay [2] and 98.5% in assay [4]. Further, the EC50 in assay [2] and in assay [3] was more than 15.1 µM in each case. Further, the “LNCaP-AR-F876L AG MAX % Stim” value in assay [3] (setting [6]) was 0.1%.
Regarding `N#Cc1ncc(N2C(=O)C3(CCC3)N(c3ccc(O)nc3)C2=S)cc1C(F)(F)F` [Cpd 18, 5-[8-(6-hydroxy-3-pyridyl)-5-oxo-7-thioxo-6,8-diazaspiro[3.4]octan-6-yl]-3-(trifluoromethyl)pyridine-2-carbonitrile], the “LNCaP-AR-F876L ANT pIC50” value in assay [1] (setting [5]) was 6.00. Moreover, the Emax in assay [1] was 99%; in assay [2], 0%; in assay [3] (setting [6]), 0%; in assay [4], 93.5%. Besides, the EC50 in assay [2] and in assay [3] was more than 15.1 µM in each case. The “LNCaP-AR-wt ANT pIC50” value in assay [4] (setting [5]) came out at 5.65.
For `CN1CCCC(Oc2ccc(N3C(=S)N(c4cnc(C#N)c(C(F)(F)F)c4)C(=O)C34CCC4)cc2)CC1` (stereo not drawn) [Cpd 19, 5-{8-[4-(1-methylazaperhydroepin-4-yloxy)phenyl]-5-oxo-7-thioxo-6,8-diazaspiro[3.4]oct-6-yl}-3-(trifluoromethyl)pyridine-2-carbonitrile], the results for the IC50 in assay [1] (setting [5]) and in assay [4] (setting [5]) were 0.2 µM and 0.661 µM, respectively. Also, the Emax in assay [1] amounted to 101%; in assay [2], 0.3%; in assay [3] (setting [6]), 1.6%; in assay [4] it was 101%. In addition, the EC50 in assay [2] and in assay [3] was more than 15.1 µM throughout.
As for `CN1CCC[C@H](Oc2ccc(N3C(=S)N(c4cnc(C#N)c(C(F)(F)F)c4)C(=O)C34CCC4)cc2)C1` [Cpd 20, 5-{8-[4-((3S)-1-methyl(3-piperidyloxy))phenyl]-5-oxo-7-thioxo-6,8-diazaspiro[3.4]oct-6-yl}-3-(trifluoromethyl)pyridine-2-carbonitrile], the IC50 in assay [1] (setting [5]) was 0.513 µM; in assay [4] (setting [5]) it was 1.82 µM. Moreover, the Emax was 97.7% in assay [1], 0.2% in assay [2], -0.5% in assay [3] (setting [6]) and 93.2% in assay [4]. The EC50 in assay [2] and in assay [3] was more than 15.1 µM in each case.
